Experimental findings from PMC10439952, “JT002, a small molecule inhibitor of the NLRP3 inflammasome for the treatment of autoinflammatory disorders” (Scientific Reports, 2023) are described below.

SMILES strings stand for the structures. “Also recorded” adds a separate entry of the source. Bounds are passed on as bounds.

In assay [1] the test system is pyroptosis of mouse BMDMs. The assay can be described thus: Inhibition of pyroptotic cell death measured by cellular ATP content (CellTiter-Glo viability) in LPS + nigericin stimulated mouse BMDMs. The class given is cell-based. The settings on record: Mouse BMDM, read-out: Geo Av IC50, Viability (pyroptosis, cellular ATP content). Here is the method: Cell viability was determined by addition of an equal volume of CellTiter-Glo® 2.0 reagent (Promega) to the remaining cells/supernatant in each well. Intracellular Caspase-1 activity was measured using the Caspase-Glo® assay (Promega) according to the manufacturer’s instructions. The biochemical capsase-1 assay was conducted at Reaction Biology Corporation (Malvern, USA). Human IL-1β, IL-1α, and TNFα and mouse IL-1β were measured in cell culture supernatants using homogeneous time resolved fluorescence assay kits (HTRF, Cisbio, Codolet, France). Human IL-18 was measured in cell culture supernatants using an ELISA kit (R&D Systems, Minneapolis, MN, USA). Plasma IL-1β concentrations were determined by Quantikine® ELISA (R&D Systems, Minneapolis, MN).
4H). MS: m/z 433.1 (M+H+).
Inflammasome activation.PBMCs (iXCells Biotechnologies, San Diego, USA) were thawed the day before the assay and seeded in complete medium (RPMI 1640 medium with GlutaMAX, supplemented with an additional 2.5 g/L D-glucose, 10% Fet al Bovine Serum, 100 mM Sodium Pyruvate, 1% Penicillin/Streptomycin, 10 mM HEPES and 0.05 mM β -mercaptoethanol) in polystyrene V-bottom 96-well plates at 5x10^4 cells per well and incubated overnight at 37°C with 5% CO 2. The next day, PBMC media was r eplaced with serum-fr ee media p rior t o the assay. […]
For orientation: In ATP-based viability assays light output follows the ATP content of the culture.

The target of another assay is NLRP3 inflammasome (Mus musculus, UniProt Q8R4B8). Description: In vivo target engagement: ex vivo LPS + ATP stimulated IL-1β production in blood of orally dosed mice. To be noted: single oral dose 25 mg/kg. Here is the method: In vivo pharmacodynamics (PD) were evaluated in mice for determination of target engagement as this species is routinely used for assessment of preclinical efficacy. Treatment of fresh, whole blood with LPS plus ATP results in the NLRP3-dependent release of IL-1β, thus providing a robust method for tracking target engagement of NLRP3 inflammasome inhibitors in the circulation after oral dose administration[36],[47]. In vivo target engagement using ex vivo stimulation of blood was evaluated in mice at various times after oral dosing of JT002. For each time point tested, one group of mice received a single oral dose of 25 mg/kg JT002 (n = 8/group) and another group received the vehicle control (n = 8/group). At the time of harvest, blood was collected from each animal and an aliquot removed and processed to plasma for determination of JT002 concentrations. The remaining blood was stimulated ex vivo with LPS plus ATP followed by analysis of IL-1β concentrations (Fig. 3A). […] Consistent with these findings, plasma concentrations of JT002 decreased over time, with mean concentrations of ≥ 4.0 µM through 8 h and a mean concentration of 6 nM at the 24-h sampling (Fig. 3C,D). […]
Sequence of NLRP3 inflammasome (Q8R4B8 whole entry): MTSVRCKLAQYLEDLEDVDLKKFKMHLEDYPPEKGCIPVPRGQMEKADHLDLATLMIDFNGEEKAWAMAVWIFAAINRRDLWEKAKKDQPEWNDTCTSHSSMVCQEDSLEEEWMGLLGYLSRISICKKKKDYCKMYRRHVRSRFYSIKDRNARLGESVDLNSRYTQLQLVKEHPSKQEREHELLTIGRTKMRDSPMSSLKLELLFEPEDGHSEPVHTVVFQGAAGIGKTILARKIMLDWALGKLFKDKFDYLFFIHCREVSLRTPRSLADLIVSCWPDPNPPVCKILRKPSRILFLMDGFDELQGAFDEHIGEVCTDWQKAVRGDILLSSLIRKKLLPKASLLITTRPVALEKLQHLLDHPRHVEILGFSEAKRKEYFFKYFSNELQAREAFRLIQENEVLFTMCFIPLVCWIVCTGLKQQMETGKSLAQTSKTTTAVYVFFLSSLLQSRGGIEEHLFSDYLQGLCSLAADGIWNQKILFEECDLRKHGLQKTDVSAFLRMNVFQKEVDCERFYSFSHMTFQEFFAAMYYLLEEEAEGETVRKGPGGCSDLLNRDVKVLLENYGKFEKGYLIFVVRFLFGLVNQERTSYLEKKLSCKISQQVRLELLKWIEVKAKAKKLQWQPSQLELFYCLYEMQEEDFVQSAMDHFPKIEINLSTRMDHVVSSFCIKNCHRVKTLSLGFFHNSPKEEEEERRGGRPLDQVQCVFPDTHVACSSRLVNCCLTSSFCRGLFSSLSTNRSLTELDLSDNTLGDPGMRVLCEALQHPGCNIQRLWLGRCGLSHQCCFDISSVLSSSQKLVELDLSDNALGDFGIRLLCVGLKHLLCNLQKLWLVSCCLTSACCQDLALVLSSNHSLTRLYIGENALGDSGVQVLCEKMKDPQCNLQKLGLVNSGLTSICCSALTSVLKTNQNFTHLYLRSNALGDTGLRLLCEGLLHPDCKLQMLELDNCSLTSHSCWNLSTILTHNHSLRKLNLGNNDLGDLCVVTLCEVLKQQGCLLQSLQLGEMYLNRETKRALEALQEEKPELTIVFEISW

Take `CO[C@@H]1COc2c(S(=O)(=O)NC(=O)Nc3c4c(cc5c3CCC5)CCC4)cnn2C1` [JT002]: the IC50 (in general, the concentration that gives 50% inhibition) in assay [1] turned out to be 7 nM. At NLRP3 inflammasome (mouse, 4- and 8-h post-dosing), the inhibition (commonly the relative decrease from the control value, in per cent) at 25 mg/kg is at least 97%. For the same compound, the “inhibition of ex vivo stimulated IL-1β production” value on NLRP3 inflammasome (24-h post-dosing, 25 mg/kg) was “no significant inhibition; also recorded: lack of inhibition”.
